Values of other authors as cited in patent US20060147527A1, “Controlled release preparations comprising tramadol and topiramate” (CILAG AG, priority 2002, published 2006).

Tested on: Chung model of post-nerve constriction injury
Details: each drug alone

| Compound | maximal effect reached as the dose is escalated |
| --- | --- |
| CC1(C)O[C@@H]2[C@@H](CO[C@@]3(COS(N)(=O)=O)OC(C)(C)O[C@@H]23)O1 [topiramate, 2,3:4,5-bis-O-(1-methylethylidene)-β-D-fructopyranose sulfamate] | 100 % MPE |
| COc1cccc(C2(O)CCCCC2CN(C)C)c1 (single isomer, unassigned) [tramadol, (1R,2R or 1S,2S)-2-[(dimethylamino)methyl]-1-(3-methoxyphenyl)-cyclohexanol] | 100 % MPE |
